The source of these data is patent US20090270371A1, “QUINOLINE DERIVATIVES USEFUL IN THE TREATMENT OF MGLUR5 RECEPTOR-MEDIATED DISORDERS” (priority 2005, published 2009).

T1 sequence (P31424 21-1203): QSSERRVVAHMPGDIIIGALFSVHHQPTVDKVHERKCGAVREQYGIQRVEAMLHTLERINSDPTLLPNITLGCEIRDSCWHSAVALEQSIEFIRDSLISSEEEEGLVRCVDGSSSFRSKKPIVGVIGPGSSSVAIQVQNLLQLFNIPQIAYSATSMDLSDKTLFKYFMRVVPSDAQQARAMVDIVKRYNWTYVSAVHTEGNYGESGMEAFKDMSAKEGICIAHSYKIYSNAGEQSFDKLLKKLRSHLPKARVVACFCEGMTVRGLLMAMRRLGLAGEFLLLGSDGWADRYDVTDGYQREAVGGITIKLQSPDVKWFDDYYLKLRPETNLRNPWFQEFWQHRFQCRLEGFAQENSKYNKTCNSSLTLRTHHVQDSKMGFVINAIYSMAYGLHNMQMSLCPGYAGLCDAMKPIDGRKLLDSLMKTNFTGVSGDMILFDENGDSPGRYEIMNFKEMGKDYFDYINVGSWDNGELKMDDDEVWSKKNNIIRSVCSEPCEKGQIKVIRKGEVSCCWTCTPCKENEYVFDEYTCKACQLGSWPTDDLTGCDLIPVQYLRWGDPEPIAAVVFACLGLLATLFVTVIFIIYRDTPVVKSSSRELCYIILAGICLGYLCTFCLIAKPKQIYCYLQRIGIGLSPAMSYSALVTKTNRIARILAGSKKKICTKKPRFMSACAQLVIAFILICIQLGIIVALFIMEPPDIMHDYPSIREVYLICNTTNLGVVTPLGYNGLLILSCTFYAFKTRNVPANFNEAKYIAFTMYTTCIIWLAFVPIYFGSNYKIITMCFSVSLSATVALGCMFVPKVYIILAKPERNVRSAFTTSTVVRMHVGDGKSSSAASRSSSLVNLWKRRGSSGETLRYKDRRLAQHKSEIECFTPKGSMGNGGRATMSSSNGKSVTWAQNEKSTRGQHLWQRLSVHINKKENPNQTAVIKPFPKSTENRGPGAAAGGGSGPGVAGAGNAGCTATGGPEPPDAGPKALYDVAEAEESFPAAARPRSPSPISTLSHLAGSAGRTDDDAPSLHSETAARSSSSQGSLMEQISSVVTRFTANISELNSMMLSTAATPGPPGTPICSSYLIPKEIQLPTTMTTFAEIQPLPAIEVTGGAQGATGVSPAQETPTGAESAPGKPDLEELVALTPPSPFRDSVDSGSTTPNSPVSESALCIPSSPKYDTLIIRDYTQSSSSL

This assay addresses T1, rat mGluR5 receptors (Rattus norvegicus, UniProt P31424).
T1 construct: rat cerebro-cortical membrane preparation was used; from tissue; host or cells: rat cerebral cortex membranes
Briefly: mGluR5 receptor binding test, rat cerebro-cortical membrane preparation, [3H]-M-MPEP. The conditions noted are these: affinity for rat mGluR5 receptors; [3H]-M-MPEP (2 nM) radioligand. The procedure: The mGluR5 receptor binding was determined according to the modified method of Gasparini et. al. (Bioorg. Med. Chem. Lett., 2000, 12, 407). Based on the high homology between the human and rat mGluR5 receptors, rat cerebro-cortical membrane preparation was used to determine the binding characteristics of the reference compounds and novel compounds to the rat mGluR5. The A18 cell line expressing hmGluR5a (purchased from Euroscreen) was used to determine binding characteristics of the chemical compounds to the human mGluR5a receptor. [^3H]-M-MPEP (2 nM) was used as radioligand. The nonspecific binding was determined in the presence of 10 μM M-MPEP.
The term Ki denotes a measure of affinity in units of concentration, obtained from inhibition or displacement. High values mean weaker binding, low ones tighter binding. The compound `Cc1ccc2ncc(S(=O)(=O)c3cccc(F)c3)c(N3CCC(C)CC3)c2c1` [Compound 159] displayed a Ki below 200 nM.
Under `COc1ccc2ncc(S(=O)(=O)c3cc(Cl)cc(Cl)c3)c(N3CCC(C)CC3)c2c1` [Compound 239] stands below 200 nM; under `Cc1ccc2ncc(S(=O)(=O)c3cc(Cl)cc(Cl)c3)c(N3CCC(C)CC3)c2c1` [Compound 153], 200 to 500 nM; under `COc1cccc(S(=O)(=O)c2cnc3ccc(Cl)cc3c2N2CCC(C)CC2)c1` [Compound 215], below 200 nM.
In the case of `COc1ccc(S(=O)(=O)c2cnc3ccc(Cl)cc3c2N2CCOCC2)cc1Cl` [Compound 301] it was above 500 nM; in that of `Cc1ccc2ncc(S(=O)(=O)c3ccc(Cl)cc3)c(N3CCCCC3)c2c1` [Compound 93], above 500 nM.
Under `COc1ccc2ncc(S(=O)(=O)c3cccc(C#N)c3)c(N3CCOCC3)c2c1` [Compound 273] stands above 500 nM; under `COc1ccc(S(=O)(=O)c2cnc3ccc(OC)cc3c2N2CCCCC2)cc1` [Compound 44], above 500 nM; under `COc1ccc(S(=O)(=O)c2cnc3cc(Cl)ccc3c2N2CCC(C)CC2)cc1Cl` [Compound 200], below 200 nM.
`CCOc1ccc2ncc(S(=O)(=O)c3ccc(OC)cc3)c(N3CCC(C)CC3)c2c1` [Compound 102] came in with an inhibitory constant (Ki) above 500 nM.
In the case of `Cc1ccc2ncc(S(=O)(=O)c3cc(F)cc(F)c3)c(N3CCOCC3)c2c1` [Compound 255] it was above 500 nM.
In the case of `CCOC(=O)N1CCN(c2c(S(=O)(=O)c3ccc(C)cc3)cnc3ccc(C)cc23)CC1` [Compound 132] it was above 500 nM; in that of `Cc1ccc2ncc(S(=O)(=O)c3ccc(F)c(F)c3)c(N3CCOCC3)c2c1` [Compound 268], above 500 nM; in that of `COc1ccc2ncc(S(=O)(=O)c3ccc(F)cc3)c(N3CCC(C)CC3)c2c1` [Compound 241], above 500 nM.
Under `Cc1cc(C)cc(S(=O)(=O)c2cnc3ccc(F)cc3c2N2CCOCC2)c1` [Compound 289] stands above 500 nM; under `CC1CCN(c2c(S(=O)(=O)c3ccccc3)cnc3ccc(F)cc23)CC1` [Compound 136], above 500 nM; under `COc1ccc2ncc(S(=O)(=O)c3cc(F)cc(F)c3)c(N3CCC(C)CC3)c2c1` [Compound 240], above 500 nM.
`Cc1ccc(S(=O)(=O)c2cnc3ccc(C)cc3c2Nc2ccc(Cl)cc2)cc1` [Compound 26] displayed a Ki above 500 nM.
Regarding `COc1cc2ncc(S(=O)(=O)c3ccccc3)c(N3CCOCC3)c2cc1OC` [Compound 7], the Ki was above 500 nM.
Under `O=S(=O)(c1ccc(Cl)c(Cl)c1)c1cnc2cc(F)ccc2c1N1CCOCC1` [Compound 316] stands below 200 nM.
Under `COc1ccc(S(=O)(=O)c2cnc3cc(F)ccc3c2N2CCOCC2)cc1Cl` [Compound 307] stands 200 to 500 nM; under `CCc1ccc2ncc(S(=O)(=O)c3ccc(Cl)cc3)c(NCc3ccc(C)cc3)c2c1` [Compound 30], above 500 nM; under `O=S(=O)(c1ccccc1)c1cnc2ccccc2c1N1CCCCC1` [Compound 5], 200 to 500 nM.
Consider `Cc1ccc2ncc(S(=O)(=O)c3cccc(Cl)c3)c(N3CCOCC3)c2c1` [Compound 263], for which the Ki was above 500 nM.
Take `O=S(=O)(c1ccc(F)c(Cl)c1)c1cnc2ccc(F)cc2c1N1CCOCC1` [Compound 290]: the Ki is 200 to 500 nM.
The compound `Cc1ccc(S(=O)(=O)c2cnc3ccc(C)cc3c2N2CCC(C(N)=O)CC2)cc1` [Compound 59] returned a Ki above 500 nM.
Regarding `COc1ccc(S(=O)(=O)c2cnc3ccc(C)cc3c2N2CCC(C)CC2)cc1` [Compound 157], the Ki was 200 to 500 nM.
Consider `COc1ccc2ncc(S(=O)(=O)c3ccc(F)cc3)c(N3CCOCC3)c2c1` [Compound 275], for which the Ki is above 500 nM.
The compound `O=S(=O)(c1ccc(F)c(F)c1)c1cnc2cc(Cl)ccc2c1N1CCOCC1` [Compound 331] returned an inhibitory constant (Ki) above 500 nM.
`Cc1ccc(S(=O)(=O)c2cnc3ccc(F)cc3c2N2CCOCC2)cc1Cl` [Compound 288] displayed an inhibition constant Ki of 200 to 500 nM.
Under `CCN(CC)c1c(S(=O)(=O)c2ccc(Cl)cc2)cnc2ccc(C)cc12` [Compound 9] stands below 200 nM; under `O=S(=O)(c1ccc(Cl)cc1)c1cnc2cc(Cl)ccc2c1N1CCOCC1` [Compound 324], 200 to 500 nM.
For `O=S(=O)(c1ccccc1)c1cnc2ccccc2c1Nc1ccccc1` [Compound 20], the inhibition constant Ki was above 500 nM.
As for `COc1ccc2ncc(S(=O)(=O)c3ccc(Cl)c(Cl)c3)c(N3CCOCC3)c2c1` [Compound 278], the Ki was above 500 nM.
For `O=S(=O)(c1cc(Cl)cc(Cl)c1)c1cnc2ccc(Cl)cc2c1N1CCOCC1` [Compound 293], the Ki was above 500 nM.
In the case of `Cc1ccc(N2CCN(c3c(S(=O)(=O)c4ccccc4)cnc4ccc(F)cc34)CC2)c(C)c1` [Compound 68] it was above 500 nM; in that of `CC1CCN(c2c(S(=O)(=O)c3ccc(F)c(F)c3)cnc3ccc(F)cc23)CC1` [Compound 152], below 200 nM; in that of `Cc1ccc(S(=O)(=O)c2cnc3ccc(Cl)cc3c2N2CCOCC2)cc1Cl` [Compound 300], 200 to 500 nM.
Take `COc1ccc(CNc2c(S(=O)(=O)c3ccc(Cl)cc3)cnc3ccccc23)cc1` [Compound 31]: the Ki was above 500 nM.
In the case of `O=S(=O)(c1ccc(Cl)cc1)c1cnc2ccccc2c1N1CCCCC1` [Compound 43], the inhibition constant (Ki) was above 500 nM.
Under `COc1ccc(N2CCN(c3c(S(=O)(=O)c4ccc(Cl)cc4)cnc4ccc(C)cc34)CC2)cc1` [Compound 75] stands above 500 nM; under `COc1cccc(S(=O)(=O)c2cnc3cc(F)ccc3c2N2CCC(C)CC2)c1` [Compound 175], below 200 nM.
For the compound `O=S(=O)(c1ccc(F)cc1)c1cnc2cc(Cl)ccc2c1N1CCC(CO)CC1` [Compound 350], the Ki fell in the range of 200 to 500 nM.
Under `COc1ccc2ncc(S(=O)(=O)c3ccccc3)c(N3CCN(C)CC3)c2c1` [Compound 128] stands above 500 nM; under `CCN(CC)c1c(S(=O)(=O)c2ccc(Cl)cc2)cnc2ccc(F)cc12` [Compound 133], above 500 nM; under `O=S(=O)(c1ccccc1)c1cnc2ccc(F)cc2c1N1CCN(Cc2ccccc2)CC1` [Compound 13], above 500 nM.
In the case of `Cc1ccc2ncc(S(=O)(=O)c3cccc(F)c3)c(N3CCOCC3)c2c1` [Compound 259] it was above 500 nM.
On to `CC1CCN(c2c(S(=O)(=O)c3ccc(Cl)c(Cl)c3)cnc3ccc(Cl)cc23)CC1` [Compound 223], for which the Ki was below 200 nM.
As to `COc1ccc(S(=O)(=O)c2cnc3cc(Cl)ccc3c2N2CCC(C)CC2)cc1OC` [Compound 196], the Ki was below 200 nM.
Regarding `O=S(=O)(c1ccc(Cl)c(Cl)c1)c1cnc2ccc(Cl)cc2c1N1CCOCC1` [Compound 298], the inhibitory constant (Ki) lay in the range of 200 to 500 nM.
`COc1ccc2ncc(S(=O)(=O)c3ccc(OC)c(Cl)c3)c(N3CCC(C)CC3)c2c1` [Compound 245] displayed a Ki above 500 nM.
Under `CC1CCN(c2c(S(=O)(=O)c3ccc(F)c(F)c3)cnc3cc(F)ccc23)CC1` [Compound 186] stands below 200 nM.
On to `Cc1cc(C)cc(S(=O)(=O)c2cnc3ccc(F)cc3c2N2CCC(C)CC2)c1` [Compound 151], for which the Ki was below 200 nM.
Under `Cc1ccc(S(=O)(=O)c2cnc3cc(Cl)ccc3c2N2CCC(C)CC2)cc1Cl` [Compound 205] stands below 200 nM; under `CCc1ccc2ncc(S(=O)(=O)c3ccccc3)c(N3CCN(Cc4ccccc4)CC3)c2c1` [Compound 66], above 500 nM.
